Drawing on article PMC9118179, “Ginkgolic acid and anacardic acid are reversible inhibitors of SARS-CoV-2 3-chymotrypsin-like protease” (Cell & Bioscience, 2022), this text covers IC50 and Ki for one compound.

Test [1] concerns the target T1, SARS-CoV-2 3CL^pro (Severe acute respiratory syndrome coronavirus 2, UniProt P0DTD1).
T1 construct: gene rep
Description: FRET protease assay. It is filed as biochemical.

Test [2] has as its target T1, SARS-CoV-2 3CL^pro. Description: FRET protease assay, Lineweaver-Burk secondary plot. It is filed as biochemical.

By IC50 is commonly meant the midpoint of a concentration-inhibition curve. High values mean lower potency, low ones higher potency. The Ki is the equilibrium dissociation constant of an inhibitor or competing ligand from its target. A low value points to higher affinity. For the compound `CCCCCCCCCCCCCCCc1cccc(O)c1C(=O)O` [AA, anacardic acid], half-maximal inhibition in test [1] (IC50) was put at 7.6 ± 0.3 µM. In addition, the Ki in test [2] worked out at 1.87 µM.
